Reference: PubChem BioAssay AID2060891 (Molecular Pharmacology Branch, DTP, NCI, 2025)

Test system: K98450-129-R-PDC complex spheroid growth, percent test/control
Assay: Anticancer human tumor K98450-129-R-PDC patient-derived colon adenocarcinoma cell line growth inhibition [RAS]
Details: for IC50: curve of first compound; for viability, T/C: stronger effect = lower value; active means viability on the fitted dose curve at most 10% of control; inactive means the rest
In short: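 Multi-cell-type spheroids: tumor cells plus HUVEC endothelial cells and mesenchymal stem cells. RAS-pathway inhibitors were combined with targeted agents, each dosed in half-log steps down from clinical Cmax, or from 10 microM when Cmax was unknown.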

[1] = second compound 0.000949 µM, first compound 0.000949 µM
[2] = second compound 0.000949 µM, first compound 0.003 µM
[3] = second compound 0.000949 µM, first compound 0.00949 µM
[4] = second compound 0.000949 µM, first compound 0.03 µM
[5] = second compound 0.000949 µM, first compound 0.0949 µM
[6] = second compound 0.000949 µM, first compound 0.3 µM
[7] = second compound 0.003 µM, first compound 0.000949 µM
[8] = second compound 0.003 µM, first compound 0.003 µM
[9] = second compound 0.003 µM, first compound 0.00949 µM
[10] = second compound 0.003 µM, first compound 0.03 µM
[11] = second compound 0.003 µM, first compound 0.0949 µM
[12] = second compound 0.003 µM, first compound 0.3 µM
[13] = second compound 0.00949 µM, first compound 0.000949 µM
[14] = second compound 0.00949 µM, first compound 0.003 µM
[15] = second compound 0.00949 µM, first compound 0.00949 µM
[16] = second compound 0.00949 µM, first compound 0.03 µM
[17] = second compound 0.00949 µM, first compound 0.0949 µM
[18] = second compound 0.00949 µM, first compound 0.3 µM
[19] = second compound 0.03 µM, first compound 0.000949 µM
[20] = second compound 0.03 µM, first compound 0.003 µM
[21] = second compound 0.03 µM, first compound 0.00949 µM
[22] = second compound 0.03 µM, first compound 0.03 µM
[23] = second compound 0.03 µM, first compound 0.0949 µM
[24] = second compound 0.03 µM, first compound 0.3 µM
[25] = second compound 0.0949 µM, first compound 0.000949 µM
[26] = second compound 0.0949 µM, first compound 0.003 µM
[27] = second compound 0.0949 µM, first compound 0.00949 µM
[28] = second compound 0.0949 µM, first compound 0.03 µM
[29] = second compound 0.0949 µM, first compound 0.0949 µM
[30] = second compound 0.0949 µM, first compound 0.3 µM
[31] = second compound 0.3 µM, first compound 0.000949 µM
[32] = second compound 0.3 µM, first compound 0.003 µM
[33] = second compound 0.3 µM, first compound 0.00949 µM
[34] = second compound 0.3 µM, first compound 0.03 µM
[35] = second compound 0.3 µM, first compound 0.0949 µM
[36] = second compound 0.3 µM, first compound 0.3 µM
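Further: spheroids exposed to agents for seven days before the viability readout.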
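Wherever viability, T/C is given: luminescence used as a proxy for viable cell amount.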

C=CC(=O)N1CCN(c2nc(OCC3CCCN3C)nc3c(F)c(-c4nc(N)cc(C)c4C(F)(F)F)c(Cl)cc23)C(C)C1 (stereo unspecified) + CCn1c(-c2cc(N3CCN(C)CC3)cnc2C(C)OC)c2c3cc(ccc31)-c1csc(n1)CC(NC(=O)C1CC1C)C(=O)N1CCCC(N1)C(=O)OCC(C)(C)C2
30.4 nM: IC50 (second compound 0.00949 µM)
52.7 nM: IC50 (second compound 0.003 µM)
< 3.16 nM: IC50 (second compound 0.03 µM) | IC50 (second compound 0.0949 µM) | IC50 (second compound 0.3 µM)
90.6 nM: IC50 (second compound 0.000949 µM)
inactive: viability, T/C (second compound 0.000949 µM, first compound 0.00316 µM) 88% | viability, T/C (second compound 0.000949 µM, first compound 0.01 µM) 71.2% | viability, T/C (second compound 0.000949 µM, first compound 0.0316 µM) 69% | viability, T/C (second compound 0.000949 µM, first compound 0.1 µM) 44.4% | viability, T/C (second compound 0.000949 µM, first compound 0.316 µM) 40.1% | viability, T/C (second compound 0.000949 µM, first compound 1 µM) 34.5% | viability, T/C (second compound 0.003 µM, first compound 0.00316 µM) 88% | viability, T/C (second compound 0.003 µM, first compound 0.01 µM) 68.5% | viability, T/C (second compound 0.003 µM, first compound 0.0316 µM) 55.6% | viability, T/C (second compound 0.003 µM, first compound 0.1 µM) 41.8% | viability, T/C (second compound 0.003 µM, first compound 0.316 µM) 42.1% | viability, T/C (second compound 0.003 µM, first compound 1 µM) 34.8% | viability, T/C (second compound 0.00949 µM, first compound 0.00316 µM) 72.7% | viability, T/C (second compound 0.00949 µM, first compound 0.01 µM) 61.7% | viability, T/C (second compound 0.00949 µM, first compound 0.0316 µM) 49.8% | viability, T/C (second compound 0.00949 µM, first compound 0.1 µM) 37.2% | viability, T/C (second compound 0.00949 µM, first compound 0.316 µM) 29.1% | viability, T/C (second compound 0.00949 µM, first compound 1 µM) 20% | viability, T/C (second compound 0.03 µM, first compound 0.00316 µM) 44.8% | viability, T/C (second compound 0.03 µM, first compound 0.01 µM) 46.3% | viability, T/C (second compound 0.03 µM, first compound 0.0316 µM) 37.3% | viability, T/C (second compound 0.03 µM, first compound 0.1 µM) 19.8% | viability, T/C (second compound 0.03 µM, first compound 0.316 µM) 20.9% | viability, T/C (second compound 0.03 µM, first compound 1 µM) 18.1% | viability, T/C (second compound 0.0949 µM, first compound 0.00316 µM) 16.1% | viability, T/C (second compound 0.0949 µM, first compound 0.01 µM) 16.9% | viability, T/C (second compound 0.0949 µM, first compound 0.0316 µM) 14.4% | viability, T/C (second compound 0.0949 µM, first compound 0.1 µM) 14.7% | viability, T/C (second compound 0.0949 µM, first compound 0.316 µM) 14.3% | viability, T/C (second compound 0.0949 µM, first compound 1 µM) 12% | viability, T/C (second compound 0.3 µM, first compound 0.00316 µM) 10.9% | viability, T/C (second compound 0.3 µM, first compound 0.01 µM) 10.5% | viability, T/C (second compound 0.3 µM, first compound 0.0316 µM) 11.6% | viability, T/C (second compound 0.3 µM, first compound 0.1 µM) 10.3% | viability, T/C (second compound 0.3 µM, first compound 0.316 µM) 11.7% | viability, T/C (second compound 0.3 µM, first compound 1 µM) 12.4%

CC1(C)CCC(Nc2ncc(C(F)(F)F)c(-c3c[nH]c4c(P(C)(C)=O)c(C#N)ccc34)n2)CN1 (stereo unspecified) + CCn1c(-c2cc(N3CCN(C)CC3)cnc2C(C)OC)c2c3cc(ccc31)-c1csc(n1)CC(NC(=O)C1CC1C)C(=O)N1CCCC(N1)C(=O)OCC(C)(C)C2
< 0.949 nM: IC50 (second compound 0.0949 µM) | IC50 (second compound 0.3 µM)
> 300 nM: IC50 (second compound 0.000949 µM) | IC50 (second compound 0.003 µM) | IC50 (second compound 0.00949 µM) | IC50 (second compound 0.03 µM)
inactive: viability, T/C [1] 100% | viability, T/C [2] 82.2% | viability, T/C [3] 96.2% | viability, T/C [4] 89.7% | viability, T/C [5] 80.8% | viability, T/C [6] 79.5% | viability, T/C [7] 81.2% | viability, T/C [8] 83.2% | viability, T/C [9] 85.6% | viability, T/C [10] 94.6% | viability, T/C [11] 77.2% | viability, T/C [12] 69.4% | viability, T/C [13] 75.2% | viability, T/C [14] 77.1% | viability, T/C [15] 76.7% | viability, T/C [16] 77.8% | viability, T/C [17] 81.7% | viability, T/C [18] 60.2% | viability, T/C [19] 54.1% | viability, T/C [20] 49.5% | viability, T/C [21] 51.2% | viability, T/C [22] 61.7% | viability, T/C [23] 63.1% | viability, T/C [24] 43.8% | viability, T/C [25] 24.6% | viability, T/C [26] 26.8% | viability, T/C [27] 30.6% | viability, T/C [28] 35.1% | viability, T/C [29] 40.3% | viability, T/C [30] 37% | viability, T/C [31] 12.7% | viability, T/C [32] 14.7% | viability, T/C [33] 17.9% | viability, T/C [34] 23.5% | viability, T/C [35] 28.4% | viability, T/C [36] 25.2%

CCc1c2c(nc3ccc(O)cc13)-c1cc3c(c(=O)n1C2)COC(=O)[C@]3(O)CC + CCn1c(-c2cc(N3CCN(C)CC3)cnc2C(C)OC)c2c3cc(ccc31)-c1csc(n1)CC(NC(=O)C1CC1C)C(=O)N1CCCC(N1)C(=O)OCC(C)(C)C2
3.92 nM: IC50 (second compound 0.03 µM)
< 0.949 nM: IC50 (second compound 0.0949 µM) | IC50 (second compound 0.3 µM)
83.6 nM: IC50 (second compound 0.000949 µM)
57.1 nM: IC50 (second compound 0.003 µM)
18.5 nM: IC50 (second compound 0.00949 µM)
active: viability, T/C [30] 9.33% | viability, T/C [35] 10.3% | viability, T/C [36] 6.55%
inactive: viability, T/C [1] 105% | viability, T/C [2] 89.6% | viability, T/C [3] 81.6% | viability, T/C [4] 52.6% | viability, T/C [5] 53.1% | viability, T/C [6] 44.3% | viability, T/C [7] 91.6% | viability, T/C [8] 75.3% | viability, T/C [9] 76% | viability, T/C [10] 54.7% | viability, T/C [11] 43.8% | viability, T/C [12] 36.4% | viability, T/C [13] 69.5% | viability, T/C [14] 56.6% | viability, T/C [15] 66.7% | viability, T/C [16] 39.6% | viability, T/C [17] 29.3% | viability, T/C [18] 22.5% | viability, T/C [19] 53.4% | viability, T/C [20] 52.8% | viability, T/C [21] 43.3% | viability, T/C [22] 24.7% | viability, T/C [23] 22.8% | viability, T/C [24] 13.9% | viability, T/C [25] 19.6% | viability, T/C [26] 24.4% | viability, T/C [27] 17.5% | viability, T/C [28] 12.3% | viability, T/C [29] 13.2% | viability, T/C [31] 12.4% | viability, T/C [32] 15.5% | viability, T/C [33] 11.4% | viability, T/C [34] 10.8%
